Columns and labels:
[1] = tested on: acute and delayed vomiting induced by cisplatin in ferrets; assay: Acute and delayed vomiting induced by cisplatin in ferrets, oral dosing once or twice daily; format: in vivo; settings: cisplatin 5 mg/kg i.p.
Method: Male 4 to 6 ferrets (1.2 to 2.2 kg) per one group were used. Cisplatin was intraperitoneally given at 5 mg/5ml/kg. 30 minutes prior to cisplatin administration and 24 and 48 hours after cisplatin administration, predetermined doses of the compound No. 3 were orally given in case of dosing once daily. 30 minutes prior to cisplatin administration and 12, 24, 36, 48 and 60 hours after cisplatin administration, predetermined doses of the compound No. 3 were orally given in case of dosing twice daily. 30 minutes prior to the dosing of the compound No. 3, a small amount of a feed was given to the animals in any of the cases. Similarly, a predetermined volume of 0.5 % methyl cellulose solution was similarly given orally to a control animal group under no fasting. A predetermined dose of ondansetron was orally given to the animals under fasting. To a control animal group of ondansetron, a predetermined volume of physiological saline was orally given to the animals under fasting. The frequency of vomiting was counted in number, up to 72 hours after cisplatin administration.
The compound No. 3 was suspended in 0.5 % methyl cellulose solution, for oral dosing at predetermined doses at a ratio of 1 ml per 1 kg body weight. An injection of ondansetron at 0.2 w/v % concentration was orally given at a predetermined volume. Additionally, 0.5 % methyl cellulose solution was orally given at a ratio of 1 ml per 1 kg body weight, while physiological saline was orally given at a ratio of 0.5 to 1.5 ml per 1 kg body weight. The data relating to the frequency of vomiting, the time period (latency) until first vomiting and the time period from the occurrence of vomiting to the termination thereof were statistically analyzed by the Dunnett test, with reference to the difference from the control group.
The acute vomiting suppression ratio, delayed vomiting suppression ratio and total vomiting suppression ratio were calculated by the following formula. [Frequency of retching or vomiting in control] - [Frequency of retching or vomiting in animals dosed with compound No. 3] / [Frequency of retching or vomiting in control] x 100 (%) [formula]

[2] = tested on: acute vomiting induced by a central emetic agent loperamide in dogs; assay: Acute vomiting induced by loperamide in dogs; format: in vivo, beagle dogs; settings: loperamide 1 mg/kg subcutaneous; for B: Frequency of vomiting (mean ± SD) / C: Time period until first vomiting (minute; mean ± SD) / D: Duration of vomiting (minute; mean ± SD) / Number of dogs with vomiting/number of tested dogs: 3 hours
Method: 3 male or female beagle dogs (7.7 to 12.7 kg) per one group were used. Loperamide was subcutaneously given at 1 mg/ml/kg. 2.5 hours prior to loperamide administration, a small amount of a feed was given to the animals. 30 minutes thereafter, predetermined doses of the compound No. 3 were orally given. Similarly, 0.5 % methyl cellulose solution was orally given to a control animal group under no fasting. Predetermined doses of naloxone and ondansetron were given intravenously and orally, respectively to the animals under fasting, 30 minutes prior to loperamide administration. The frequency of vomiting was counted, up to 3 hours after loperamide administration. The compound No. 3 was dissolved in 0.5 % methyl cellulose solution, for oral dosing at a ratio of 0.25 to 1 ml per 1 kg body weight. Additionally, naloxone was intravenously given in a solution at a concentration of 0.05 % w/v. An injection of ondansetron at a concentration of 0.2 % w/v was orally given. Still additionally, 0.5 % methyl cellulose solution was orally given at a ratio of 1 ml per 1 kg body weight. The data relating to the frequency of vomiting, the latency and the time period from the occurrence of vomiting to the termination thereof were statistically analyzed by the Dunnett test, with reference to the difference from the control group.
The vomiting suppression ratio was calculated by the following formula. [Frequency of retching or vomiting in control] - [Frequency of retching or vomiting in animals dosed with compound No. 3] / [frequency of retching or vomiting in control] x 100 (%) [formula]

[3] = 0.03 mg/kg × 2 p.o., twice daily
[4] = 0.1 mg/kg × 2 p.o., twice daily
[5] = 0.3 mg/kg × 2 p.o., twice daily
[6] = 1 mg/kg p.o. twice daily, listed as compound No. 3
[7] = 3 mg/kg p.o. twice daily, listed as compound No. 3
[8] = 10 mg/kg p.o. once daily, listed as compound No. 3

## Cc1ccc(-c2c3n(c(=O)c4ncccc24)CC[C@@H](C)CN(Cc2cc(C(F)(F)F)cc(C(F)(F)F)c2)C3=O)cc1 [Cpd. No.3, (9R)-7-[3,5-bis(trifluoromethyl)benzyl]-6,7,8,9,10,11-hexahydro-9-methyl-5-(4-methylphenyl)-6,13-dioxo-13H-[1,4]diazocino[2,1-g][1,7]naphthylidine]
[1]; 0.03 mg/kg p.o. twice daily
  Acute vomiting suppression ratio (0 to 24 hours after cisplatin dosing): 25 % NS
  Delayed vomiting suppression ratio (24 to 72 hours after cisplatin dosing): 31 % NS
  Total vomiting suppression ratio (0 to 72 hours after cisplatin dosing): 30 % NS
[1]; [3]
  Duration (in hour; mean ± SD): 50.8 ± 7.3 h
  Latency (in hour; mean ± SD): 13.4 ± 4.9 h
  On day 0 (0-24 hours): frequency of retching and vomiting (mean ± SD): 24.8 ± 14.8
  On day 0 (0-24 hours): number of ferrets with vomiting/ number of tested ferrets: 3/4
  On days 1-2(24-48 hours): frequency of retching and vomiting (mean ± SD): 245.8 ± 34.3
  On days 1-2(24-48 hours): number of ferrets with vomiting/ number of tested ferrets: 4/4
  Total frequency of retching and vomiting (on days 0-2; 0-72 hours): 270.5 ± 43.7
[1]; 0.1 mg/kg p.o. twice daily
  Acute vomiting suppression ratio (0 to 24 hours after cisplatin dosing): 21 % NS
  Delayed vomiting suppression ratio (24 to 72 hours after cisplatin dosing): 37 % a
  Effect on delayed vomiting induced by cisplatin (in words): significantly suppressed
  Total vomiting suppression ratio (0 to 72 hours after cisplatin dosing): 36 % a
[1]; [4]
  Duration (in hour; mean ± SD): 54.8 ± 6.1 h
  Latency (in hour; mean ± SD): 13.3 ± 6.3 h
  On day 0 (0-24 hours): frequency of retching and vomiting (mean ± SD): 26.0 ± 11.2
  On day 0 (0-24 hours): number of ferrets with vomiting/ number of tested ferrets: 3/4
  On days 1-2(24-48 hours): frequency of retching and vomiting (mean ± SD): 222.0 ± 20.7 a
  On days 1-2(24-48 hours): number of ferrets with vomiting/ number of tested ferrets: 4/4
  Total frequency of retching and vomiting (on days 0-2; 0-72 hours): 248.0 ± 10.7 a
[1]; 0.3 mg/kg p.o. twice daily
  Acute vomiting suppression ratio (0 to 24 hours after cisplatin dosing): 100 % NS
  Delayed vomiting suppression ratio (24 to 72 hours after cisplatin dosing): 41 % b
  Total vomiting suppression ratio (0 to 72 hours after cisplatin dosing): 46 % b
[1]; [5]
  Duration (in hour; mean ± SD): 31.1 ± 1.9 a hour
  Latency (in hour; mean ± SD): 34.5 ± 3.4 b hour
  On day 0 (0-24 hours): frequency of retching and vomiting (mean ± SD): 0
  On day 0 (0-24 hours): number of ferrets with vomiting/ number of tested ferrets: 0/4
  On days 1-2(24-48 hours): frequency of retching and vomiting (mean ± SD): 209.3 ± 14.0 b
  On days 1-2(24-48 hours): number of ferrets with vomiting/ number of tested ferrets: 4/4
  Total frequency of retching and vomiting (on days 0-2; 0-72 hours): 209.3 ± 14.0 b
[1]; 1 mg/kg p.o. twice daily
  Acute vomiting suppression ratio (0 to 24 hours after cisplatin dosing): 0 % NS
  Delayed vomiting suppression ratio (24 to 72 hours after cisplatin dosing): 70 % a
  Total vomiting suppression ratio (0 to 72 hours after cisplatin dosing): 54 % b
[1]; [6]
  Delayed vomiting suppression ratio (24 to 72 hours after cisplatin dosing): 70%
  Total vomiting suppression ratio (0 to 72 hours after cisplatin dosing): 54%
[1]; 1 mg/kg × 2 p.o., twice daily
  Duration (in hour; mean ± SD): 64.8 ± 2.2 h
  Latency (in hour; mean ± SD): 3.4 ± 1.1 h
  On day 0 (0-24 hours): frequency of retching and vomiting (mean ± SD): 71.8 ± 20.6
  On day 0 (0-24 hours): number of ferrets with vomiting/ number of tested ferrets: 4/4
  On days 1-2(24-48 hours): frequency of retching and vomiting (mean ± SD): 108.0 ± 9.6 b
  On days 1-2(24-48 hours): number of ferrets with vomiting/ number of tested ferrets: 4/4
  Total frequency of retching and vomiting (on days 0-2; 0-72 hours): 179.8 ± 21.0 b
[1]; 3 mg/kg p.o. once daily, listed as compound No. 3
  Delayed vomiting suppression ratio (0 to 72 hours after cisplatin dosing): 42%
[1]; 3 mg/kg p.o. twice daily
  Acute vomiting suppression ratio (0 to 24 hours after cisplatin dosing): 82 % NS
  Delayed vomiting suppression ratio (24 to 72 hours after cisplatin dosing): 59 % b
  Total vomiting suppression ratio (0 to 72 hours after cisplatin dosing): 61 % b
[1]; [7]
  Acute vomiting suppression ratio (0 to 24 hours after cisplatin dosing): 82%
  Delayed vomiting suppression ratio (24 to 72 hours after cisplatin dosing): 59%
[1]; 3 mg/kg p.o., once daily
  Acute vomiting suppression ratio (0 to 24 hours after cisplatin dosing): 48 % NS
  Delayed vomiting suppression ratio (0 to 72 hours after cisplatin dosing): 42 % a
  Delayed vomiting suppression ratio (24 to 72 hours after cisplatin dosing): 40 % NS
  Duration (in hour; mean ± SD): 61.2 ± 1.2 h
  Latency (in hour; mean ± SD): 7.8 ± 1.1 h
  On day 0 (0-24 hours): frequency of retching and vomiting (mean ± SD): 56.8 ± 18.4
  On day 0 (0-24 hours): number of ferrets with vomiting/ number of tested ferrets: 4/4
  On days 1-2(24-48 hours): frequency of retching and vomiting (mean ± SD): 209.5±23.6
  On days 1-2(24-48 hours): number of ferrets with vomiting/ number of tested ferrets: 4/4
  Total frequency of retching and actual vomiting (on days 0-2; 0-72 hours): 266.3 ± 20.6 a
[1]; 3 mg/kg × 2 p.o., twice daily
  Duration (in hour; mean ± SD): 40.9 ± 13.9 h
  Latency (in hour; mean ± SD): 25.8 ± 10.7 h
  On day 0 (0-24 hours): frequency of retching and vomiting (mean ± SD): 6.0 ± 4.5
  On day 0 (0-24 hours): number of ferrets with vomiting/ number of tested ferrets: 2/4
  On days 1-2(24-48 hours): frequency of retching and vomiting (mean ± SD): 145.0 ± 50.5 b
  On days 1-2(24-48 hours): number of ferrets with vomiting/ number of tested ferrets: 4/4
  Total frequency of retching and vomiting (on days 0-2; 0-72 hours): 150.8 ± 53.1 b
[1]; [8]
  Acute vomiting suppression ratio (0 to 24 hours after cisplatin dosing): 83%
  Delayed vomiting suppression ratio (24 to 72 hours after cisplatin dosing): 65%
[1]; 10 mg/kg p.o., once daily
  Acute vomiting suppression ratio (0 to 24 hours after cisplatin dosing): 83 % NS
  Delayed vomiting suppression ratio (0 to 72 hours after cisplatin dosing): 70 % b
  Delayed vomiting suppression ratio (24 to 72 hours after cisplatin dosing): 65 % a
  Duration (in hour; mean ± SD): 51.4 ± 7.0 a hour
  Effect on delayed vomiting induced by cisplatin (in words): prominently suppressed
  Latency (in hour; mean ± SD): 16.2 ± 5.6 h
  On day 0 (0-24 hours): frequency of retching and vomiting (mean ± SD): 19.0 ± 11.0 b
  On day 0 (0-24 hours): number of ferrets with vomiting/ number of tested ferrets: 3/4
  On days 1-2(24-48 hours): frequency of retching and vomiting (mean ± SD): 120.5 ± 5.0 a
  On days 1-2(24-48 hours): number of ferrets with vomiting/ number of tested ferrets: 4/4
  Total frequency of retching and actual vomiting (on days 0-2; 0-72 hours): 139.5 ± 8.3 b
[2]; 0.01 mg/kg p.o.
  Vomiting suppression ratio: 20 % NS
  B: Frequency of vomiting (mean ± SD): 8.0 ± 2.5
  C: Time period until first vomiting (minute; mean ± SD): 0.74 ± 0.07 min
  D: Duration of vomiting (minute; mean ± SD): 1.24 ± 0.21 min
  Number of dogs with vomiting/number of tested dogs: 3/3
[2]; 0.03 mg/kg or higher p.o.
  Effect on vomiting (in words): significantly suppressed
[2]; 0.03 mg/kg p.o.
  Vomiting suppression ratio: 80 % a
  B: Frequency of vomiting (mean ± SD): 2.0 ± 0.6 a
  C: Time period until first vomiting (minute; mean ± SD): 1.08 ± 0.11 min
  D: Duration of vomiting (minute; mean ± SD): 0.44 ± 0.22 min
  Number of dogs with vomiting/number of tested dogs: 3/3
[2]; 0.1 mg/kg p.o.
  Vomiting suppression ratio: 73 % a
  B: Frequency of vomiting (mean ± SD): 2.7 ± 2.2 a
  C: Time period until first vomiting (minute; mean ± SD): 1.98 ± 0.55 a minute
  D: Duration of vomiting (minute; mean ± SD): 0.59 ± 0.59 min
  Number of dogs with vomiting/number of tested dogs: 2/3
[2]; 1 mg/kg p.o.
  Vomiting suppression ratio: 67 % a
  B: Frequency of vomiting (mean ± SD): 3.3 ± 1.2 a
  C: Time period until first vomiting (minute; mean ± SD): 1.25 ± 0.35 min
  D: Duration of vomiting (minute; mean ± SD): 0.68 ± 0.34 min
  Number of dogs with vomiting/number of tested dogs: 3/3
[2]; 3 mg/kg p.o.
  Vomiting suppression ratio: 70 % a
  B: Frequency of vomiting (mean ± SD): 3.0 ± 0.6 a
  C: Time period until first vomiting (minute; mean ± SD): 1.63 ± 0.34 min
  D: Duration of vomiting (minute; mean ± SD): 0.38 ± 0.13 a minute
  Number of dogs with vomiting/number of tested dogs: 3/3
[2]; 10 mg/kg p.o.
  Effect on vomiting (in words): completely suppressed
  Vomiting suppression ratio: 100 % b
  B: Frequency of vomiting (mean ± SD): 0 b
  C: Time period until first vomiting (minute; mean ± SD): 3 b minute
  D: Duration of vomiting (minute; mean ± SD): 0 b minute
  Number of dogs with vomiting/number of tested dogs: 0/3

— EP1145714A1, “DRUGS” (Takeda Chemical Industries, Ltd., priority 1998, dated 2000)
